From PubChem BioAssay AID1996 come the findings set out here.

Each structure is given as a SMILES string. In brackets after ≈: the same amount, converted by molar mass.

The conditions of the series: buffer; pH 7.4; 200.0 µM.
On to `COC(=O)c1sccc1NC(=O)c1ccc(C(C)C)cc1`, for which the kinetic solubility was less than 0.6 µg/mL.

Molecule `Cc1ccc(/C=C2\SC(=S)N(c3cccnc3)C2=O)cc1` yielded a solubility (kinetic) of less than 0.3 µg/mL.

`CC(=O)Nc1ccc(OCCOc2ccc(NC(C)=O)cc2)cc1` returned a kinetic solubility of 2.2 µg/mL (≈ 6.7 µM).

For the molecule `O=C(CCCOc1ccc(Cl)cc1)NCCc1ccccc1`, the kinetic solubility was 1.5 µg/mL (≈ 4.72 µM).

`Cc1ccccc1CC1SC(N)=NC1=O` (stereo not drawn) displayed a kinetic solubility of 21.8 µg/mL (≈ 99 µM).

On to `Cc1ccc(OCC(=O)NCCO)c(Br)c1`, for which the solubility (kinetic) was greater than 43.2 µg/mL.

In turn, `CC(C)(O)CNC(=O)Nc1ccc(Cl)c(Cl)c1` registered a kinetic solubility of 24.6 µg/mL (≈ 88.8 µM).

Turning to `COc1cc2c(cc1OC)CN(CC(=O)Nc1cccc([N+](=O)[O-])c1)CC2`, the solubility (kinetic) was determined as 14.9 µg/mL (≈ 40.1 µM).

Molecule `OCC1CCCCN1C(=S)Nc1ccc(Cl)cc1Cl` (stereo not drawn) had a solubility (kinetic) greater than 47.9 µg/mL.

The molecule `COc1cc(C)c(CN2CCC(Cc3ccccc3)CC2)cc1C` had a solubility (kinetic) of 26.4 µg/mL (≈ 81.6 µM).

Turning to `CCC(C)(C)NC(=O)/C=C/c1ccccc1[N+](=O)[O-]`, the kinetic solubility worked out at 31.4 µg/mL (≈ 120 µM).

For `CCOC(=O)c1c(C=O)c2ccccc2n1CC`, the kinetic solubility came to 3.1 µg/mL (≈ 12.6 µM).

`COc1cc(C)ccc1OCC(=O)OCC(=O)c1[nH]c(C)c(C(C)=O)c1C` had a kinetic solubility of 13.5 µg/mL (≈ 36.2 µM).

`Cn1c(N)c(C(=O)Nc2c(Cl)cccc2Cl)sc1=S` registered a solubility (kinetic) of 2.4 µg/mL (≈ 7.18 µM).

In turn, `CCOC(=O)CC(=O)CSc1nccc(-c2cccnc2)n1` yielded a kinetic solubility greater than 47.6 µg/mL.

For `Fc1ccc(CNCCc2c[nH]c3ccccc23)cc1`, the kinetic solubility was greater than 40.2 µg/mL.

As to `O=C(CNC1CCCCC1)Nc1cccc(C(F)(F)F)c1`, the kinetic solubility was greater than 45 µg/mL.

Consider `O=C(NC(=O)c1c(F)cccc1F)Nc1ccccc1SC(F)F`, for which the solubility (kinetic) was less than 0.4 µg/mL.

`CC(NC(=O)C1CCC(C)(C(=O)O)C1(C)C)c1ccccc1` (stereo not drawn): the solubility (kinetic) is greater than 45.5 µg/mL.

For the molecule `Cn1c(SCC(=O)Nc2sccc2C#N)nnc1C1CC1`, the kinetic solubility is greater than 47.9 µg/mL.

As for `C=CCNC(=S)N1CCC(C(=O)c2ccc(C)cc2)CC1`, the kinetic solubility was greater than 45.4 µg/mL.

For `CCc1nnc(NC(=O)CS(=O)(=O)Cc2ccccc2)s1`, the solubility (kinetic) was greater than 48.8 µg/mL.

As for `Cc1c(NC(=O)C(C)C)cccc1-c1nc2ncccc2o1`, the kinetic solubility is greater than 44.3 µg/mL.

For `O=C(CN1C(=O)NC2NC(=O)NC21)N/N=C/c1ccc(F)cc1` (stereo not drawn), the kinetic solubility was greater than 48 µg/mL.

In turn, `c1ccc(-c2cc(N3CCCCC3)c3ccccc3n2)cc1` gave a solubility (kinetic) of less than 0.3 µg/mL.

Molecule `O=C(CCc1nc2ccccc2c(=O)[nH]1)N1CCN(c2ccccc2Cl)CC1` came in with a solubility (kinetic) of 3.2 µg/mL (≈ 8.06 µM).

`O=C(COC(=O)/C=C/c1ccc(F)cc1)NCc1cccs1` displayed a solubility (kinetic) of 8.7 µg/mL (≈ 27.2 µM).

Regarding `COc1cccc(NC(=O)COC(=O)c2sccc2C)c1`, the kinetic solubility was 12.2 µg/mL (≈ 40 µM).

For the molecule `CC1CCC(C(C)C)C(OCC(O)CNC(C)(C)C)C1.Cl` (stereo not drawn), the kinetic solubility is greater than 48.3 µg/mL.

Molecule `O=C(CCCCN1CCCCC1)c1ccc2c(c1)Cc1ccccc1-2` showed a kinetic solubility of 6.6 µg/mL (≈ 19.8 µM).

In turn, `CCOC(=O)c1ccc2c(c1)N(CC#N)C(=O)C(C)(C)O2` returned a solubility (kinetic) greater than 43.2 µg/mL.

In turn, `Cn1c(=O)c([N+](=O)[O-])c(-n2ccnc2)c2ccccc21` came in with a solubility (kinetic) of 37.4 µg/mL (≈ 138 µM).

`OC(CNCc1ccc(Cl)cc1)C(F)(F)F` (stereo not drawn) gave a kinetic solubility greater than 38 µg/mL.

Take `Cn1c(=O)c2c(nc3n2CC(COc2ccccc2)O3)n(C)c1=O` (stereo not drawn): the kinetic solubility is greater than 49.2 µg/mL.

As to `COc1ccc2cc(/C=N/O)c(Cl)nc2c1`, the solubility (kinetic) is 0.9 µg/mL (≈ 3.8 µM).

The molecule `CCN(C(=O)COC(=O)CCc1ccccc1)c1ccccc1` registered a kinetic solubility of 44.3 µg/mL (≈ 142 µM).

In turn, `CCc1onc(C)c1C(=O)O` displayed a kinetic solubility greater than 23.3 µg/mL.

Turning to `COC(=O)CN1C(=O)N/C(=C/c2ccccc2OC)C1=O`, the kinetic solubility is greater than 43.5 µg/mL.

In turn, `O=C(COc1cccnc1[N+](=O)[O-])Nc1ccc(F)cc1` returned a solubility (kinetic) of 11.5 µg/mL (≈ 39.5 µM).

With `CS(=O)(=O)N1CCN(Cc2ccc([N+](=O)[O-])cc2)CC1`, the solubility (kinetic) is greater than 44.9 µg/mL.

With `COc1ccccc1C(=O)Nc1ccc(Nc2ccccc2)cc1`, the kinetic solubility is less than 0.3 µg/mL.

The molecule `Cl.N=c1ccn(Cc2cccc(F)c2)cc1` came in with a kinetic solubility of 30.8 µg/mL.

`COc1cc(OC)cc(C(=O)NCC(=O)OCC(=O)NC(C)CCc2ccccc2)c1` (stereo not drawn): the kinetic solubility was greater than 64.3 µg/mL.

Consider `CC(C)Oc1ccc(C2CC(=O)NC2=O)cc1` (stereo not drawn), for which the kinetic solubility was greater than 35 µg/mL.

In the case of `CNC(=O)CSc1nc(SC)ns1`, the kinetic solubility is greater than 35.3 µg/mL.

`Cc1ccc(C(=O)OC(C)CN2CCOCC2)cc1.Cl` (stereo not drawn) had a solubility (kinetic) of 38.9 µg/mL.

Regarding `CC(C)CNC(=O)COc1ncnc2sccc12`, the kinetic solubility is greater than 39.8 µg/mL.

`COc1ccc(NC(=O)COC(=O)Cn2cnc3ccccc32)cc1` came in with a kinetic solubility greater than 50.9 µg/mL.

With `Cc1nn(-c2ccc(C(=O)O)cc2)c2c1C(=O)CC(C)(C)C2`, the kinetic solubility was greater than 44.8 µg/mL.

Molecule `COc1ccccc1CNC(=O)COC(=O)Cc1cccc(F)c1` showed a solubility (kinetic) greater than 49.7 µg/mL.

Turning to `O=C(Nc1nc2c(s1)CN(Cc1ccccc1)CC2)C1CCC1`, the kinetic solubility is 40 µg/mL (≈ 122 µM).

As to `CCC(=O)Nc1cc(C(=O)O)ccc1Sc1ccc(C)cc1`, the solubility (kinetic) is 38.8 µg/mL (≈ 123 µM).

The molecule `CCOC(=O)C1=C(O)CSC1=Nc1ccc(C)cc1` registered a solubility (kinetic) greater than 41.6 µg/mL.
